Assay results as given in patent US12533370B2, “Compositions and methods of potentiating antimicrobials” (priority 2016, dated 2026).
Values after ≈ are worked out from the molar mass of the structure shown.

Assays:
[1] = tested on: MRSA/VISA clinical strain No 111; assay: MIC and Fic index for gentamicin with and without CBD, Example 9; type: cell-based, Staphylococcus aureus; conditions: for MIC value: agent alone
Experimental: (§1) The term “minimal inhibitory concentration” or “MIC” as used herein relates to the minimal concentration of an agent, or a combination of agents, in which bacteria are substantially killed or at least not substantially grow. The cutoff value to determine the MIC in the experimental section was set to an optical density (OD) value of ≤0.1 after an overnight incubation of the bacteria together with the tested antibacterial agent(s).
(§2) Fractional Inhibitory Concentration values (FicA and FicB) and Fic index were calculated for each combination of compounds and clinical isolate using the following standard equations for this analysis: Fic index=FicA+FicB FicA=MIC of compound A (CBG) in combination/MIC of compound A alone. FicB=MIC of compound B (gentamicin) in combination/MIC of compound B alone.
(§3) Synergy is defined as a Fic index value of ≤0.5. Indifference or no interaction will be defined as a FIC index value of >0.5 and <4. Antagonism will be defined as a FIC index value of >4. When the FIC index value is within the range of 0.5-1, the combination is considered to be non-synergistic or additive.
(§4) The goal of the current experiment was to determine the minimal inhibitory concentration (MIC) for gentamicin with and without CBD on methicillin-resistant Staphylococcus aureus (MRSA) and vancomycin-resistant Staphylococcus aureus (MRSA) (VISA) clinical strain No 111 from Souraski Medical Center, Tel Aviv, Israel. The cutoff value to determine the MIC was set to an optical density (OD) value of ≤0.1.
(§5) Fractional Inhibitory Concentration values (FicA and FicB) and Fic index were calculated for each combination of compounds and clinical isolate using the same calculation as in example 7.

[2] = tested on: Streptococcus pneumoniae; assay: MIC for carbenicillin with and without THC, Example 6; type: cell-based; conditions: agent alone, OD cutoff ≤0.1
Experimental: (§6) In certain embodiments, the method of testing the anti-bacterial efficacy of a composition (or any test solution), comprises the following steps: (a) inoculation of bacteria (e.g. from a −80° C. stock) into 3 mL Muller Hinton (MH) medium; (b) incubation of the inoculated medium at 37° C. under agitation of 250 rpm for 18-20 hours, thus obtaining a starter culture; (c) diluting the starter culture using saline to obtain working cultures of 5*10^5 or 10^6 bacteria/mL; (d) combining the […] and the tested composition in a test container, e.g. a 96-well plate; (e) incubating the test container at 37° C. under shaking (100 rpm) for 18-20 hours; and (f) determining the viability of bacteria in the test container, thus determining the anti-bacterial efficacy of the composition, e.g. via determining the optical density (OD) of the bacterial culture. Routine calibrations and/or modifications of this method are well within the capabilities of any person of average skill in the art.
(§7) The term “minimal inhibitory concentration” or “MIC” as used herein relates to the minimal concentration of an agent, or a combination of agents, in which bacteria are substantially killed or at least not substantially grow. […]

[3] = tested on: S. aureus ATCC strain 25923 (gentamicin-sensitive); assay: Minimal inhibitory concentration (MIC) for gentamicin with and without THC, Example 2; type: cell-based, Staphylococcus aureus; conditions: OD cutoff ≤0.1
Experimental: as §6, §7

[4] = tested on: methicillin-resistant Staphylococcus aureus (MRSA); assay: MIC for gentamicin with and without THC on MRSA, Example 4; type: cell-based
Experimental: as §6, §7

[5] = tested on: S. aureus ATCC strain 25923 (gentamicin-sensitive); assay: Minimal bactericidal concentration (MBC), Example 1; type: cell-based, Staphylococcus aureus
Experimental: The goal of the current experiment was to determine the minimal bactericidal concentrations (MBC) for THC with and without PEA on S. aureus ATCC strain 25923 (gentamicin-sensitive).
• 1. Incubation of the S. aureus (from a −80° C. stock) in 3 ml Muller Hinton (MH, Difco) medium at 37° C. under agitation of 250 rpm for 18-20 hours (this culture served as a starter for the experiment); • 2. Dilution of the starter culture using saline to obtain working cultures of 5*10^5 and 10^6 C.F.U/mL bacteria, respectively. • 3. Diluting the THC (0.125 mg/mL in saline) with or without PEA or gentamicin in a 96-well plate. • 4. Incubation of the plates at 37° C. under shaking (100 rpm) for 18-20 hours. • 5. In the following day, the bacteria in the wells suspended in saline were evaluated for their C.F.U/mL to determine the MBC.

[6] = tested on: S. aureus ATCC strain 25923 (gentamicin-sensitive); assay: MIC for gentamicin with and without THC, Example 3; type: cell-based, Staphylococcus aureus; conditions: OD cutoff ≤0.1
Experimental: as §6, §7

[7] = tested on: methicillin-resistant Staphylococcus aureus (MRSA); assay: MIC for ampicillin with and without THC on MRSA, Example 5; type: cell-based; conditions: read-out: MIC value
Experimental: as §6, §7

[8] = tested on: established S. aureus ATCC strain 25923 (gentamicin-sensitive) biofilm; assay: MIC for gentamicin with and without THC on established biofilm, Example 10; type: cell-based, Staphylococcus aureus; conditions: agent alone; OD cutoff ≤0.1
Experimental: as §1
The goal of the current experiment was to determine the minimal inhibitory concentration (MIC) for gentamicin with and without THC on an established S. aureus ATCC strain 25923 (gentamicin-sensitive) biofilm. The cutoff value to determine the MIC was set to an optical density (OD) value of ≤0.1.

[9] = tested on: MRSA/VISA clinical strain No 111; assay: MIC and Fic index for gentamicin with and without CBG, Example 7; type: cell-based, Staphylococcus aureus; conditions: for MIC value: agent alone, OD cutoff ≤0.1
Experimental: as §1
as §4, with “CBG” for “CBD”
as §2, §3

[10] = tested on: methicillin-resistant Staphylococcus aureus (MRSA) violent clinical strain 760330509; assay: MIC and Fic index for gentamicin with and without CBG, Example 8; type: cell-based; conditions: for MIC value: agent alone
Experimental: as §1, §2, §3
as §4, with “CBG” for “CBD”, “violent” for “and vancomycin-resistant Staphylococcus aureus (MRSA) (VISA)”, “760330509” for “No 111”
as §5

[11] = Staphylococcus aureus, ATCC25923, agent alone
[12] = Staphylococcus aureus, read-out: MIC value

Q: For C=C(C)[C@@H]1CCC(C)=C[C@H]1c1c(O)cc(CCCCC)cc1O [CBD, cannabidiol], which “FicA value (MIC of CBD in combination/MIC alone)” value ([1]; 32 μg/mL Gen.+1 μg/mL CBD) is on record?
A: 0.125

Q: What about the MIC ([1]; Staphylococcus aureus, read-out: MIC value, agent alone, MRSA/VISA strain No 111, OD cutoff ≤0.1) of the same molecule?
A: ~8 µg/mL

Q: With CC1(C)S[C@@H]2[C@H](NC(=O)C(C(=O)O)c3ccccc3)C(=O)N2[C@H]1C(=O)O (stereo partly shown) [carbenicillin] as the molecule, how does the MIC [2] read?
A: ~0.2 µg/mL

Q: Which MIC [3, 11] does the source give for CCCCCc1cc(O)c2c(c1)OC(C)(C)[C@@H]1CCC(C)=C[C@@H]21 [THC, tetrahydrocannabinol] here?
A: ~1 µg/mL

Q: What about the MIC [4, 12] of the same molecule?
A: ~2 µg/mL

Q: And the MBC ([5]; Staphylococcus aureus, ATCC25923, agent alone, S. aureus ATCC 25923)?
A: ~7.8 µg/mL (≈ 24.8 µM)

Q: And the “fold decrease of MBC compared to gentamicin alone” value ([5]; THC alone vs gentamicin alone)?
A: 32 fold

Q: What about the MIC [6, 11] of the same molecule?
A: ~2 µg/mL

Q: What about the MIC [7] of the same molecule?
A: ~2 µg/mL

Q: What about the “MIC value on established biofilm” value [8] of the same molecule?
A: about 0.004 mg/mL

Q: What about the MIC [2] of the same molecule?
A: ~2 µg/mL

Q: Which results are given for CCCCCc1cc(O)c(C/C=C(\C)CCC=C(C)C)c(O)c1 [CBG, cannabigerol]?
A: FicA value (MIC of CBG in combination/MIC alone) ([9]; 64 μg/mL Gen.+1 μg/mL CBG): 0.125; MIC value for CBG alone ([9]; MRSA/VISA strain No 111): about 8 n g/mL; MIC [9, 12]: 8 µg/mL; FicA value (MIC of CBG in combination/MIC alone) ([10]; 32 μg/mL Gen.+1 μg/mL CBG): 0.125; MIC ([10]; Staphylococcus aureus, MRSA, read-out: MIC value, agent alone, MRSA strain 760330509, OD cutoff ≤0.1): ~8 µg/mL

Q: Which MIC [7] does the source give for CC1(C)S[C@@H]2[C@H](NC(=O)[C@H](N)c3ccccc3)C(=O)N2[C@H]1C(=O)O [ampicillin] here?
A: ~500 µg/mL

Q: Which “FicB value (MIC of gentamicin in combination/MIC alone)” value ([1]; 32 μg/mL Gen.+1 μg/mL CBD) does the source give for gentamicin here?
A: 0.125

Q: And the MIC value ([1]; MRSA/VISA strain No 111, OD cutoff ≤0.1)?
A: about 256 μg/mL

Q: And the MIC value ([1]; MRSA/VISA strain No 111, OD cutoff ≤0.1, listed as Gen.)?
A: 256 µg/mL

Q: And the MIC value ([3]; agent alone)?
A: about 0.001 mg/mL

Q: What about the “FicB value (MIC of gentamicin in combination/MIC alone)” value ([9]; 64 μg/mL Gen.+1 μg/mL CBG) of the same molecule?
A: 0.25

Q: And the MIC value ([9]; MRSA/VISA strain No 111)?
A: about 256 μg/mL

Q: What about the MIC value ([9]; MRSA/VISA strain No 111, listed as Gen.) of the same molecule?
A: 256 µg/mL

Q: What about the MIC value ([4]; agent alone, OD cutoff ≤0.1) of the same molecule?
A: about 0.125 mg/mL

Q: What about the “FicB value (MIC of gentamicin in combination/MIC alone)” value ([10]; 32 μg/mL Gen.+1 μg/mL CBG) of the same molecule?
A: 0.25

Q: And the MIC value ([10]; MRSA strain 760330509, OD cutoff ≤0.1)?
A: about 128 μg/mL

Q: What about the MIC value ([10]; MRSA strain 760330509, OD cutoff ≤0.1, listed as Gen.) of the same molecule?
A: 128 µg/mL

Q: And the MBC value ([5]; agent alone, S. aureus ATCC 25923)?
A: 250 µg/mL

Q: And the MIC value ([6]; agent alone)?
A: about 0.002 mg/mL

Q: And the “MIC value on established biofilm” value [8]?
A: over 0.002 mg/mL
